According to patent US12440466B2, “Fatty acid derivatives for treating non-alcoholic steatohepatitis” (BASF AS, priority 2017, dated 2025):

Test system: ob/ob AMLN mice
Assay: Hepatic hydroxyproline (HYP) content in ob/ob AMLN mice
Type: in vivo, mouse
Settings: 8 weeks; for HYP content, total: p<0.01; for HYP content, relative: p<0.05
Experimental: Obese diet-induced B6.V-Lepob/Jrj mice (ob/ob) are consistently fibrosis (liver) prone when cholesterol (2%), 40% fat (containing 18% trans-fatty acids) and 20% fructose are added to a high-caloric diet (i.e., AMLN high-fat diet). ob/ob mice on AMLN diet (termed ‘ob/ob AMLN mice’) develop steatohepatitis and fibrosis within a shorter timeframe ([…]) compared with wild-type C57BL/6 mice (AMLN mice) fed the same diet. ob/ob AMLN mice provide an obese diet-induced model of NASH that also allows the study of effects on glycemic control. Development of NASH in the ob/ob AMLN model is confirmed by biopsy.
In Biological Examples 10, 13-14, and 16-18, studies were performed in male ob/ob mice (5 weeks old) fed an AMLN high-fat diet for 18 weeks, then randomized into 6 groups (n=10 per group) to receive either Compound A (at 3 different daily doses, 45 mg/kg, 90 mg/kg or 135 mg/kg) via diet, 30 mg/kg bw per day obeticholic acid (OCA) via diet, or no treatment (vehicle) for a further 8 weeks. Assessment of NASH related parameters and fibrosis was made at study end by quantitative immune histochemistry (IHC) measurements.
To corroborate the anti-fibrotic effects seen with quantitative IHC, hepatic concentrations of hydroxyproline (HYP) were measured, as shown in FIG. 6E and FIG. 6F.

CC/C=C\C/C=C\C/C=C\C/C=C\C/C=C\CCCCOC(CC)C(=O)O (stereo not shown) [Compound A, 2-((5Z,8Z,11Z,14Z,17Z)-icosa-5,8,11,14,17-pentaenyloxy)butanoic acid]
reduced: HYP content, total (Compound A 90 mg/kg) | HYP content, relative (Compound A 90 mg/kg) | HYP content, total (Compound A 135 mg/kg) | HYP content, relative (Compound A 135 mg/kg)
